Measured values as given in ChEMBL document CHEMBL1201862, “PubChem BioAssay data set” (2004).
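Interpolation was linear, between the two tested concentrations surrounding the appropriate level; five concentrations were tested over 48 hours in 96-well plates. GI50 marks 50% less growth.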 Calls of active or inactive are those of the source. No stated cut-off is given here; in the data, active = GI50 up to about 1.1 µM and inactive = higher.

Columns and labels:
Test in all cases: NCI tumour cell line growth inhibition, 48 h
OVCAR-4 = test system: OVCAR-4
HOP-92 = test system: HOP-92
UACC-257 = test system: UACC-257
NCI-H226 = test system: NCI-H226
UO-31 = test system: UO-31
M14 = test system: M14
Hs-578T = test system: Hs-578T
NCI/ADR-RES = test system: NCI/ADR-RES
ACHN = test system: ACHN
SF-539 = test system: SF-539
OVCAR-8 = test system: OVCAR-8
SF-295 = test system: SF-295
SNB-19 = test system: SNB-19
A549 = test system: A549
T47D = test system: T47D
MCF7 = test system: MCF7
SK-MEL-28 = test system: SK-MEL-28
RXF 393 = test system: RXF 393
BT-549 = test system: BT-549
LOX IMVI = test system: LOX IMVI

Row | SMILES | GI50 (OVCAR-4) | GI50 (HOP-92) | GI50 (UACC-257) | GI50 (NCI-H226) | GI50 (UO-31) | GI50 (M14) | GI50 (Hs-578T) | GI50 (NCI/ADR-RES) | GI50 (ACHN) | GI50 (SF-539) | GI50 (OVCAR-8) | GI50 (SF-295) | GI50 (SNB-19) | GI50 (A549) | GI50 (T47D) | GI50 (MCF7) | GI50 (SK-MEL-28) | GI50 (RXF 393) | GI50 (BT-549) | GI50 (LOX IMVI)
1 | O=C(c1ccccc1)c1c(C(F)(F)F)[n+]([O-])c2cc(F)c(F)cc2[n+]1[O-] | 2.07 µM (inactive) | 0.238 µM (active) | 1.79 µM (inactive) | 1.73 µM (inactive) | 1.38 µM (inactive) | 0.698 µM (active) | 0.942 µM (active) | 0.367 µM (active) | 0.0929 µM (active) | 0.838 µM (active) | 0.634 µM (active) | 0.946 µM (active) | 4.05 µM (inactive) | 2.95 µM (inactive) | 1.79 µM (inactive) | 0.349 µM (active) | 1.26 µM (inactive) | 1 µM (active) | – | –
2 | COC(=O)c1csc(-c2nc(CCNC(=O)OC(C)(C)C)sc2Br)n1 | – | – | > 100 µM (inactive) | > 100 µM (inactive) | > 100 µM (inactive) | > 100 µM (inactive) | > 100 µM (inactive) | > 100 µM (inactive) | > 100 µM (inactive) | > 100 µM (inactive) | > 100 µM (inactive) | > 100 µM (inactive) | > 100 µM (inactive) | > 100 µM (inactive) | – | > 100 µM (inactive) | > 100 µM (inactive) | > 100 µM (inactive) | > 100 µM (inactive) | –
3 | CCCCN(CCCC)C(=C(C(Cl)=C(Cl)Cl)[N+](=O)[O-])N(CCCC)CCCC | > 100 µM (inactive) | 90.8 µM (inactive) | 32.1 µM (inactive) | > 100 µM (inactive) | > 100 µM (inactive) | > 100 µM (inactive) | – | > 100 µM (inactive) | > 100 µM (inactive) | > 100 µM (inactive) | – | > 100 µM (inactive) | > 100 µM (inactive) | > 100 µM (inactive) | 73.8 µM (inactive) | – | > 100 µM (inactive) | – | > 100 µM (inactive) | –
4 | COc1ccc(-c2c(C3=NCCCN3)nnn2-c2ccccc2)cc1 | > 100 µM (inactive) | 86.5 µM (inactive) | > 100 µM (inactive) | > 100 µM (inactive) | > 100 µM (inactive) | > 100 µM (inactive) | – | – | > 100 µM (inactive) | > 100 µM (inactive) | > 100 µM (inactive) | > 100 µM (inactive) | > 100 µM (inactive) | > 100 µM (inactive) | – | – | > 100 µM (inactive) | > 100 µM (inactive) | – | > 100 µM (inactive)
5 | COc1ccccc1C#C/C=C\C#Cc1ccccc1C#N | 96.8 µM (inactive) | 31.7 µM (inactive) | 5.2 µM (inactive) | – | 10.9 µM (inactive) | 6.08 µM (inactive) | 25.9 µM (inactive) | 10.4 µM (inactive) | 13.9 µM (inactive) | 18.6 µM (inactive) | 5.35 µM (inactive) | 6.58 µM (inactive) | 37.8 µM (inactive) | 6.89 µM (inactive) | 5.86 µM (inactive) | 4.61 µM (inactive) | 34.2 µM (inactive) | 7.98 µM (inactive) | – | –
6 | CC1NOC(NS(=O)(=O)c2ccc(/N=N/c3c(O)c(C(=O)O)cc4ccccc34)cc2)C1C (stereo unspecified) | > 100 µM (inactive) | > 100 µM (inactive) | > 100 µM (inactive) | > 100 µM (inactive) | 55 µM (inactive) | > 100 µM (inactive) | > 100 µM (inactive) | > 100 µM (inactive) | > 100 µM (inactive) | > 100 µM (inactive) | > 100 µM (inactive) | > 100 µM (inactive) | 59.2 µM (inactive) | > 100 µM (inactive) | – | > 100 µM (inactive) | > 100 µM (inactive) | > 100 µM (inactive) | > 100 µM (inactive) | –
7 | C[Si](C)(C)/C=C/CN1C(=O)CCC1O (stereo unspecified) | > 100 µM (inactive) | > 100 µM (inactive) | > 100 µM (inactive) | > 100 µM (inactive) | > 100 µM (inactive) | > 100 µM (inactive) | – | – | > 100 µM (inactive) | > 100 µM (inactive) | > 100 µM (inactive) | > 100 µM (inactive) | > 100 µM (inactive) | > 100 µM (inactive) | – | – | > 100 µM (inactive) | > 100 µM (inactive) | – | > 100 µM (inactive)
8 | Cc1coc2c1[C@@H](O)[C@@]1(C)[C@H](CCC[C@@H]1C)C2 | 58.7 µM (inactive) | 51.2 µM (inactive) | 33 µM (inactive) | 25.5 µM (inactive) | – | 18.2 µM (inactive) | 61.7 µM (inactive) | 24.8 µM (inactive) | 33.8 µM (inactive) | 21.5 µM (inactive) | 22.4 µM (inactive) | 45 µM (inactive) | 72.9 µM (inactive) | – | 31.4 µM (inactive) | > 100 µM (inactive) | 48.2 µM (inactive) | 18.2 µM (inactive) | – | 43.4 µM (inactive)
